Laboratory results from article PMC6359144 (International Journal of Molecular Sciences, 2019).

Columns and labels:
[1] = tested on: DLD-1 colon carcinoma cells; assay: MTT assay, DLD-1 colon carcinoma cells; type: cell-based; settings: Homo sapiens, DLD-1, read-out: IC50 DLD-1 (72 h)
Description: (§1) HT-29 (ACC-299), HCT-116 (ACC-581) and DLD-1 (ACC-278) colon carcinoma, MCF-7 (ACC-115) breast carcinoma, KB-V1 (ACC-149), 518A2 (Department of Radiotherapy and Radiobiology, University Hospital Vienna) melanoma and Ea.Hy926 (ATCC no. CRL-2922) HUVEC derived endothelial hybrid cells line were grown in Dulbecco’s Modified Eagle Medium (DMEM; Biochrom), high glucose supplemented with 10% (v/v) fetal bovine serum (FBS; Biochrom.) and 1% (v/v) Antibiotic-Antimycotic solution (anti-anti; Thermo Scientific). HDFa human dermal fibroblasts (ATCC: PCS-201-012™) were grown in DMEM supplemented with 10% FBS, 1% anti-anti and 2 mM glutamine. The cells were incubated at 37 °C, 5% CO2, 95% humidified atmosphere. By repeated addition of topotecan or vinblastine at the maximum tolerated dose to the cell medium of MCF-7 and KB-V1 cells, the cells were rendered multidrug-resistant, indicated as MCF-7^Topo and KB-V1^Vbl, respectively. They were serially passaged following trypsinization by using 0.05% trypsin/0.02% EDTA (Biochrom). Mycoplasma contamination was routinely monitored, and only mycoplasma–free cultures were used.
(§2) MTT [3-(4,5-dimethylthiazol-2-yl)-2,5-diphenyltetrazolium bromide] (ABCR) was used to determine the cytotoxicity of test compounds as previously described. Briefly, HDFa human dermal fibroblasts and Ea.Hy926 endothelial hybrid cells (both 1 × 10^5 cells/mL, 100 µL/well), 518A2 melanoma, KB-V1^Vbl cervix carcinoma, MCF-7^Topo breast carcinoma, HT-29, DLD-1 and HCT-116 colon carcinoma (all 5 × 10^4 cells/mL, 100 µL/well) were grown in 96-well culture plates for 24 h. Then, various concentrations of the test compounds were added and the cells were incubated for 24-72 h at 37 °C. After adding 12.5 µL of a 0.5% MTT solution in PBS (final concentration 0.05%) to cell medium, microplates were incubated for 2 h and subsequently swiftly turned to discard the medium. The precipitate of formazan crystals was then dissolved in a 10% solution of SDS in DMSO containing 0.6% acetic acid. To ensure complete dissolution of formazan, microplates were incubated for at least 4 h at 37 °C. Finally, the absorbance at λ = 570 nm (formazan) and 630 nm (background) was measured using a microplate reader (Tecan F200). All experiments were carried out in quadruplicate and the percentage of viable cells was calculated as the mean ± SD with controls set to 100%. Selected graphs of MTT assays can be found in the Supporting Information (Figure S8).

[2] = tested on: HCT-116 colon carcinoma cells; assay: MTT assay, HCT-116 colon carcinoma cells; type: cell-based; settings: Homo sapiens, HCT-116, read-out: IC50 HCT-116 (72 h)
Description: as §1, §2

[3] = tested on: Ea.Hy926 endothelial hybrid cells; assay: MTT assay, Ea.Hy926 endothelial hybrid cells; type: cell-based; settings: Homo sapiens, EA.hy 926, read-out: IC50 Ea.Hy926 (72 h)
Description: as §1, §2

518A2 melanoma cells = assay: DCFH-DA assay of intracellular ROS; type: cell-based, human; settings: 10 µM, 1 h, vehicle treated controls set to 100%
Excerpt: Gosch 2,3, Alexandra […] Rothemund 1, Thomas Mueller 4, […] Schobert 1, Bernhard Biersack 1,*, Andrea Volkamer 3 and Michael […] 2,* 1 Department of Chemistry, University of […], Germany; florian1.schmitt@uni-[…].rothemund@uni -[…].schobert@uni - bayreuth.de (R.S.) 2 Institute of Physiology, Charité-Universitätsmedizin Berlin, Charitéplatz 1, 10117 Berlin, Germany; […].), alexandra.[…].) 3 In Silico Toxicology Group, Institute of Physiology, Charité-Universitätsmedizin Berlin, Charitéplatz 1, 10117 Berlin, Germany; […] 4 Internal Medicine IV, University Hospital […], Germany; thomas.mueller@medizin.uni-[…] * Correspondence: bernhard.biersack@yahoo.com (B.B.); michael.hoepfner@charite.de (M.H.); Tel.: +49-921- 55- 2673 (B.B.); Tel: +49-030-450-528 -515(M.H.); Table of content Material and Methods ... S1 DCFH-DA assay. ... S1 Immuofluorescence staining of acetylated alpha-tubulin ... S2 Wound healing assay ... S2 Results ... S3 Effect on the microtubule cytoskeleton ... S3 Effect on the intracellular ROS levels ... S3 Effect on the acetylation of alpha-tubulin ... S3 Effect on migratory activity ... S5 Effect on mouse weight ... S6 Graphs of MTT assays ... S7 S1 Material and Methods DCFH-DA assay. The assay was performed as previously described. […] 100 μL/well) were grown in a black 96-well plate for 24 h. Then, the cell medium was exchanged for […] After […] and vehicle (DMSO) in serum-free DMEM for 1 h at 37 °C. Then, the cells were washed twice with 100 μL PBS and subsequently placed in a microplate reader (TECAN). The DCF-fluorescence (λex = 485 nm, λem = 535 nm) as a measure of ROS production was determined and that of vehicle treated controls set to 100%. Values exceeding 100% indicate a drug-induced ROS generation. The values of six independent assays were depicted as the means ± SD. There were no outliers and the data fulfilled variance homogeneity (Levene's test, p > 0.05).

[4] = tested on: p21, p27, cyclin D1 in 518A2 melanoma cells; assay: Western blot of cell cycle regulatory proteins; type: cell-based, human; settings: 24 h; for effect on p21 expression: 4d […]–4 µM, SAHA 5 µM
Description: After harvesting and lysing of the cells, western blotting was performed as described before. For subsequent analysis, the protein-loaded membranes were incubated with antibodies directed against p21 (Abcam ab109199), p27 ([…]), cyclin D1 (Cell Signaling 29225) and GADPH (Santa Cruz sc25778) in 1:1000 dilutions. After incubation with horseradish peroxidase-coupled anti-IgG antibodies (1:10,000; Amersham), the blot was developed using the Celvin-S developer (Biostep) and the software SnapAndGo 1.8.1.

| SMILES | IC50 [1] | IC50 [2] | IC50 [3] | intracellular ROS level (518A2 melanoma cells) | effect on p21 expression [4] | effect on cyclin D1 level ([4]; 4d 0.15–4 µM) |
| --- | --- | --- | --- | --- | --- | --- |
| COc1ccc(-c2ocnc2-c2cc(Br)c(OC)c(OC)c2)cc1OCCCC(=O)NO [4d, N-Hydroxy-4-[1-methoxy-4-(4’-(3’’-bromo-4’’,5’’-dimethoxyphenyl)oxazol-5’-yl)-2-phenoxy]butanamide] | 290 ± 20 nM | 130 ± 10 nM | 18 ± 4 nM | 241% ± 17 | distinctly suppressed p21 expression | increased the level of cyclin D1 |
| COc1ccc(-c2ocnc2-c2cc(Br)c(OC)c(OC)c2)cc1OCCCCC(=O)NO [4e, N-Hydroxy-5-[1-methoxy-4-(4’-(3’’-bromo-4’’,5’’-dimethoxyphenyl)oxazol-5’-yl)-2-phenoxy]pentanamide] | 2100 ± 400 nM | 2200 ± 300 nM | 660 ± 10 nM | 230 ± 31% | – | – |
| COc1ccc(-c2ocnc2-c2cc(Br)c(OC)c(OC)c2)cc1OCCCCCC(=O)NO [4f, N-Hydroxy-6-[1-methoxy-4-(4’-(3’’-bromo-4’’,5’’-dimethoxyphenyl)oxazol-5’-yl)-2-phenoxy]hexanamide] | 4100 ± 300 nM | 6300 ± 400 nM | 410 ± 40 nM | 198 ± 24% | upregulated p21 expression in a dose-dependent way | – |
